Measurements from patent US20110105623A1 (Biogenic Innovations, LLC, priority 2009, published 2011).

Legend:
[1] = system: Streptococcus Pneumonia (#10341); test: Bacterial viability by bioluminescent ATP assay
[2] = system: Streptococcus Pyogenes (Lancefield group A, #10096); test: Bacterial viability by bioluminescent ATP assay

Row | Molecule | S. pneumonia viability (%) ([1]; 25 μg/L penicillin alone) | reduced viability by ([1]; 25 μg/L penicillin alone) | S. pneumonia viability (%) ([1]; 50 μg/L Penicillin alone) | S. pneumonia viability (%) ([1]; 100 μg/L Penicillin alone) | S. pneumonia viability ([1]; Penicillin 100 μg/L, MSM 0%) | IC50 [2] | IC50 [1] | reduces viability by ([1]; 5% DMSO) | Viability of S. pyogenes ([2]; DMSO Concentration 0.31) | Viability of S. pyogenes ([2]; DMSO Concentration 0.63) | Viability of S. pyogenes ([2]; DMSO Concentration 1.25) | Viability of S. pyogenes ([2]; DMSO Concentration 2.50) | S. pyogenes viability ([2]; DMSO […], MSM 0%)
1 | Penicillin | 79.82% | approximately 21% | 42.70% | 40.93% | 40.93% | 15.25 µg/L |  |  |  |  |  |  | 
2 | C[S+](C)[O-] [DMSO, Dimethyl sulfoxide] |  |  |  |  |  | 9.07% | 12.86% | approximately 25% | 100% | 100% | 100% | 100% | 100%
